Assay results as given in article PMC5363571 (Oncotarget, 2016).
Where a name gives a salt, the structure may show the parent alone.

Molecular target: USP7 (Homo sapiens, UniProt Q93009)
Assay: biochemical
Parameters: Ub-AMC hydrolysis by recombinant USP7 (20 nM), 30 min pre-incubation, fluorescence read-out
Details: read-out: % Inhibition at 50 μM

Sequence of USP7 (Q93009 whole entry): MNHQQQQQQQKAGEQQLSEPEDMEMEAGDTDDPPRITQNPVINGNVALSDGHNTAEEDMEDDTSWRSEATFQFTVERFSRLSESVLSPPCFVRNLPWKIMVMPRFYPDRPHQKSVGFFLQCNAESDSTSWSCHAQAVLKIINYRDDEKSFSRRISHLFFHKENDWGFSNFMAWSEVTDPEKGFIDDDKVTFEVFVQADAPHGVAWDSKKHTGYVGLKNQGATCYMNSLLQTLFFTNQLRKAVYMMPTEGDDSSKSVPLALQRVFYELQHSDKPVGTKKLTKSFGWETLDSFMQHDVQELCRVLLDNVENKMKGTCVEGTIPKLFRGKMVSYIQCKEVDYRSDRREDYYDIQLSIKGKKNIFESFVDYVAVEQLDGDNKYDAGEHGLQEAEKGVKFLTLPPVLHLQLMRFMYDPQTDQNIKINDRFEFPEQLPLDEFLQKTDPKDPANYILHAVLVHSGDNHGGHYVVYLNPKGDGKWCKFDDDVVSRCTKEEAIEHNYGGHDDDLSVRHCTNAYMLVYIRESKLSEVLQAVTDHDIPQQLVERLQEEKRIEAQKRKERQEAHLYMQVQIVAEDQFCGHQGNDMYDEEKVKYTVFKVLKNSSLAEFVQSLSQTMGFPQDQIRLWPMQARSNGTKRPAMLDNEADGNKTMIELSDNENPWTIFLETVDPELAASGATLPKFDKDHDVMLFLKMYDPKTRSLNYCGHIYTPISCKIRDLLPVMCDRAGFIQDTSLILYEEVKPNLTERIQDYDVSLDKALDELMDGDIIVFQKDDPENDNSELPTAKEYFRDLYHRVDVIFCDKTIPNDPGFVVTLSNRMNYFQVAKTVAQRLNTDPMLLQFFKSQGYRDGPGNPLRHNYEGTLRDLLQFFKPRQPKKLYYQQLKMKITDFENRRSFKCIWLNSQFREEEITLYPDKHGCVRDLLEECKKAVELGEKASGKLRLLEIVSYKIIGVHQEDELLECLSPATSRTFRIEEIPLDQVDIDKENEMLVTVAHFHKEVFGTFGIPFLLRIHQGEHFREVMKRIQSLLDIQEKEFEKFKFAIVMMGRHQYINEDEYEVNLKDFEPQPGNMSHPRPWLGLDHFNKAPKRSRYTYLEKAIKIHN

Row | Structure (SMILES) | inhibition at 50 µM
1 | CCOC(=O)C1=C[C@]2(CC)CCCN3CCc4c(n1c1ccccc41)[C@@H]32 [Vinpocetine] | 38.5%
2 | CN(CCOc1ccc(NS(C)(=O)=O)cc1)CCc1ccc(NS(C)(=O)=O)cc1 [Dofetilide] | < 5%
3 | O=c1[nH]c2ccccc2n1CCCN1CCC(n2c(=O)[nH]c3cc(Cl)ccc32)CC1 [Domperidone] | < 5%
4 | COc1c(C)c2c(c(O)c1C/C=C(\C)CCC(=O)O)C(=O)OC2 [Mycophenolic acid] | < 5%
5 | CCN(CC)CCCC(C)Nc1c2ccc(Cl)cc2nc2ccc(OC)cc12 (stereo not shown) [Quinacrine 2HCl dihydrate] | < 5%
6 | COc1ccc2[nH]cc(CCNC(C)=O)c2c1 [Melatonin] | < 5%
7 | CC(C)n1c(/C=C/[C@H](O)C[C@H](O)CC(=O)O)c(-c2ccc(F)cc2)c2ccccc21 [Fluvastatin Na] | < 5%
8 | N=c1ccn2c(n1)O[C@H]1[C@H](O)[C@@H](CO)O[C@H]12 [Cyclocytidine HCl] | 29.5%
9 | CC(C)NCC(O)c1ccc2ccccc2c1 (stereo not shown) [Pronethalol HCl] | 8.3%
10 | CC(=O)[C@]1(O)Cc2c(O)c3c(c(O)c2[C@@H](O[C@H]2C[C@H](N)[C@H](O)[C@H](C)O2)C1)C(=O)c1ccccc1C3=O [Idarubicin] | < 5%
11 | O=C(O)Cc1ccccc1 [Sodium phenylacetate] | < 5%
12 | COc1cccc2c1C(=O)c1c(O)c3c(c(O)c1C2=O)C[C@@](O)(C(C)=O)C[C@@H]3O[C@H]1C[C@H](N)[C@H](O)[C@H](C)O1 [Daunorubicin HCl] | < 5%
13 | CC(N/C(=N\C#N)Nc1ccncc1)C(C)(C)C (stereo not shown) [Pinacidil] | < 5%
14 | COc1cc(-c2ccc(=O)[nH]n2)ccc1OC(F)F [Zardaverine] | < 5%
15 | CN(C(=O)CCCOc1ccc2[nH]c(=O)ccc2c1)C1CCCCC1 [Cilostamide] | < 5%
16 | CCCc1nc(C(C)(C)O)c(C(=O)O)n1Cc1ccc(-c2ccccc2-c2nnn[nH]2)cc1 [Olmesartan] | < 5%
17 | CC(C)C(=O)c1c(C(C)C)nn2ccccc12 [Ibudilast] | < 5%
18 | CCCOc1ccccc1-c1nc2[nH]nnc2c(=O)[nH]1 [Zaprinast] | < 5%
19 | O=C(O[C@@H]1C[C@@H]2C[C@H]3C[C@H](C1)N2CC3=O)c1c[nH]c2ccccc12 [Dolasetron] | < 5%
20 | CN(C)CC/C=C1/c2ccccc2COc2ccc(CC(=O)O)cc21 [Olopatadine] | < 5%
21 | CCCCc1nc(Cl)c(CO)n1Cc1ccc(-c2ccccc2-c2nnn[nH]2)cc1 [Losartan potassium] | < 5%
22 | CC(=O)[C@H]1CC[C@H]2[C@@H]3CC=C4C[C@@H](O)CC[C@]4(C)[C@H]3CC[C@]12C [Pregnenolone] | < 5%
23 | Fc1ccc(C(c2ccc(F)cc2)N2CCN(C/C=C/c3ccccc3)CC2)cc1 [Flunarizine-2HCl] | < 5%
24 | CN1CCN(CC(=O)N2c3ccccc3C(=O)Nc3cccnc32)CC1 [Pirenzepine 2HCl] | < 5%
25 | O=C(O)COC(=O)Cc1ccccc1Nc1c(Cl)cccc1Cl [Aceclofenac] | < 5%
26 | CC#C[C@]1(O)CC[C@H]2[C@@H]3CCC4=CC(=O)CCC4=C3[C@@H](c3ccc(N(C)C)cc3)C[C@@]21C [Mifepristone] | < 5%

Row | Structure (SMILES) | inhibition at 50 µM
27 | CCC(C)(C)C(=O)O[C@H]1C[C@@H](C)C=C2C=C[C@H](C)[C@H](CC[C@@H]3C[C@@H](O)CC(=O)O3)[C@H]21 [Simvastatin] | < 5%
28 | CCN(CC)CCNC(=O)c1ccc(N)cc1 [Procainamide] | < 5%
29 | O=C(CCCCCCC(=O)Nc1ccccc1)NO [Vorinostat] | < 5%
30 | COC(=O)C1=C(C)NC(C)=C(C(=O)OCCCN2CCC(c3ccccc3)(c3ccccc3)CC2)[C@H]1c1cccc([N+](=O)[O-])c1 [Niguldipine HCl] | < 5%
31 | OCCN1CCN(CCCN2c3ccccc3Sc3ccc(C(F)(F)F)cc32)CC1 [Fluphenazine 2HCl] | < 5%
32 | CCCc1nc(C)c2c(=O)nc(-c3cc(S(=O)(=O)N4CCN(CC)CC4)ccc3OCC)[nH]n12 [Vardenafil] | < 5%
33 | C[N+](C)(C)[C@@H](Cc1c[nH]c(=S)[nH]1)C(=O)[O-] [Ergothioneine] | < 5%
34 | CCN(CC)CCOc1ccc(C(=C(Cl)c2ccccc2)c2ccccc2)cc1 [Clomiphene citrate] | < 5%
35 | COc1ccc(C(=O)N2CCCC2=O)cc1 [Aniracetam] | < 5%
36 | CC(C)COCC(CN(Cc1ccccc1)c1ccccc1)N1CCCC1 (stereo not shown) [Bepridil] | < 5%
37 | COc1ccc2cc(CCC(C)=O)ccc2c1 [Nabumetone] | < 5%
38 | CCOc1nc2cccc(C(=O)O)c2n1Cc1ccc(-c2ccccc2-c2nnn[nH]2)cc1 [Candesartan] | < 5%
39 | CC(=O)O[C@]1(C(C)=O)CC[C@H]2[C@@H]3C=C(Cl)C4=CC(=O)[C@@H]5C[C@@H]5[C@]4(C)[C@H]3CC[C@@]21C [Cyproterone acetate] | 28.6%
40 | CCOC(=O)[N-]c1c[n+](N2CCOCC2)no1 [Molsidomine] | < 5%
41 | COC(=O)C1=C(C)NC(C)=C(C(=O)OCCN2CCN(C(c3ccccc3)c3ccccc3)CC2)C1c1cccc([N+](=O)[O-])c1 (stereo not shown) [Manidipine] | < 5%
42 | COc1ccccc1Oc1c(NS(=O)(=O)c2ccc(C(C)(C)C)cc2)nc(-c2ncccn2)nc1OCCO [Bosentan] | < 5%
43 | CO[C@H]1C[C@H](O[C@H]2[C@H](C)[C@@H](O[C@@H]3O[C@H](C)C[C@H](N(C)C)[C@H]3OC(C)=O)[C@@H](C)C[C@@]3(CO3)C(=O)[C@H](C)[C@@H](OC(C)=O)[C@@H](C)[C@@H](C)OC(=O)[C@@H]2C)O[C@@H](C)[C@@H]1OC(C)=O [Troleandomycin] | < 5%
44 | CC(=O)SCC(Cc1ccccc1)C(=O)NCC(=O)OCc1ccccc1 (stereo not shown) [Racecadotril] | < 5%
45 | Cc1cnc(C(=O)O)c[n+]1[O-] [Acipimox] | < 5%
46 | CC/C(=C(\c1ccccc1)c1ccc(OCCN(C)C)cc1)c1ccccc1 [Tamoxifen citrate] | < 5%
47 | CCN[C@H]1C[C@H](C)S(=O)(=O)c2sc(S(N)(=O)=O)cc21 [Dorzolamide] | < 5%
48 | COC(=O)[C@H](c1ccccc1Cl)N1CCc2sccc2C1 [Clopidogrel sulfate] | < 5%
49 | CC1(C)C[C@@H]1C(=O)N/C(=C\CCCCSC[C@H](N)C(=O)O)C(=O)O [Cilastatin] | < 5%
50 | CC(C)(O)c1ccccc1CC[C@@H](SCC1(CC(=O)O)CC1)c1cccc(/C=C/c2ccc3ccc(Cl)cc3n2)c1 [Montelukast] | 76.3%
51 | Clc1ccc(CCC(Cn2ccnc2)Sc2c(Cl)cccc2Cl)cc1 (stereo not shown) [Butoconazole nitrate] | < 5%
52 | CCC(C)n1ncn(-c2ccc(N3CCN(c4ccc(OC[C@H]5CO[C@](Cn6cncn6)(c6ccc(Cl)cc6Cl)O5)cc4)CC3)cc2)c1=O (mixture of isomers) [Itraconazole] | < 5%

Row | Structure (SMILES) | inhibition at 50 µM
53 | C[C@H]1[C@H](C)CC[C@]2(C(=O)O)CC[C@]3(C)C(=CC[C@@H]4[C@@]5(C)CC[C@H](O)C(C)(C)[C@@H]5CC[C@]43C)[C@H]12 [Uosolic acid] | 75.2%
54 | COc1cc2c(cc1OC)C(=O)C(CC1CCN(Cc3ccccc3)CC1)C2 (stereo not shown) [Donepezil HCl] | < 5%
55 | O=C(CCCN1CCC(O)(c2cccc(C(F)(F)F)c2)CC1)c1ccc(F)cc1 [Trifluperidol 2HCl] | < 5%
56 | CCCCCOC(=O)Nc1nc(=O)n([C@@H]2O[C@H](C)[C@@H](O)[C@H]2O)cc1F [Capecitabine] | < 5%
57 | C/N=C(/NC#N)NCCSCc1csc(NC(=N)N)n1 [Tiotidine] | 11.6%
58 | CN1[C@@H]2CC[C@H]1C[C@@H](OC(=O)C(CO)c1ccccc1)C2 (stereo partly shown) [Atropine sulfate] | < 5%
59 | C[C@H]1C[C@@H]2[C@H]([C@@H](O)C[C@@]3(C)[C@H]2CC[C@]3(O)C(=O)CO)[C@@]2(C)C=CC(=O)C=C12 [Methylprednisolone] | < 5%
60 | CC(C)NCC(O)c1ccc(O)c(O)c1 (racemic) [Isoproterenol HCl (rac)] | < 5%
61 | CS(=O)(=O)Nc1ccc([N+](=O)[O-])cc1Oc1ccccc1 [Nimesulide] | < 5%
62 | CN(C/C=C/C#CC(C)(C)C)Cc1cccc2ccccc12 [Terbinafine HCl] | 8.6%
63 | Nc1c(Br)cc(Br)cc1CN[C@H]1CC[C@H](O)CC1 [Ambroxol] | < 5%
64 | C=CCc1ccccc1OCC(O)CNC(C)C (stereo not shown) [Alprenolol HCl] | < 5%
65 | COc1ccc(CCN(C)CCCC(C#N)(c2ccc(OC)c(OC)c2)C(C)C)cc1OC (stereo not shown) [Verapamil] | < 5%
66 | COCCc1ccc(OCC(O)CNC(C)C)cc1 (stereo not shown) [Metoprolol tartrate] | < 5%
67 | COc1cc(NC(C)CCCN)c2ncccc2c1 (stereo not shown) [Primaquine phosphate] | < 5%
68 | O=C(c1ccc(F)cc1)C1CCN(CCn2c(=O)[nH]c3ccccc3c2=O)CC1 [Ketanserin tartrate] | < 5%
69 | C[C@H](N)[C@H](O)c1ccccc1 [Phenylpropanolamine] | < 5%
70 | CC1(C)CC[C@]2(C(=O)O)CC[C@]3(C)C(=CC[C@@H]4[C@@]5(C)CC[C@H](O)[C@@](C)(CO)[C@@H]5CC[C@]43C)[C@@H]2C1 [Hederagenin] | 36.5%
71 | C#C[C@]1(O)CC[C@H]2[C@@H]3CCC4=CC(=O)CCC4=C3C=C[C@@]21CC [Gestrinone] | < 5%
72 | CC(C(=O)O)c1cccc(C(=O)c2ccccc2)c1 (stereo not shown) [Ketoprofen] | < 5%
73 | COc1ccc(C(=O)c2c(C)n(CCN3CCOCC3)c3ccccc23)cc1 [Pravadoline] | < 5%
74 | CC1CCc2c(N3CCC(O)CC3)c(F)cc3c(=O)c(C(=O)O)cn1c23 (stereo not shown) [Nadifloxacin] | < 5%
75 | NCCCC[C@H](N[C@@H](CCc1ccccc1)C(=O)O)C(=O)N1CCC[C@H]1C(=O)O [Lisinopril] | 30.5%
76 | COc1cccc2c1C(=O)c1c(O)c3c(c(O)c1C2=O)C[C@@](O)(C(=O)CO)C[C@@H]3O[C@H]1C[C@H](N)[C@H](O)[C@H](C)O1 [Doxorubicin HCl] | < 5%
